These are literature values, as cited in patent US5534416A, “Fluorescent viability assay using cyclic-substituted unsymmetrical cyanine dyes” (Molecular Probes, Inc., priority 1993, dated 1996).

One data set has as its system intact cells. The conditions noted are these: cited from earlier work; for Loading / Retention / pH sensitivity: in words.
The next data set concerns calf thymus DNA. To be noted: Table 5; bound to excess calf thymus DNA (50 bp/dye); cited from earlier work.
Setting [1] is: "probably", temperature not stated.

Like-named read-outs stand apart in the source and are kept apart here.

For Carboxycalcein Blue AM, the “T1/2 (time for half of dye to leak from intact cells)” value in the data set on intact cells (setting [1]) is on record as below 60 min. Further, in the data set with intact cells, the Loading result is given as “Easily loaded”.
Consider `CC(=O)Oc1ccc2c(c1)Oc1cc(OC(C)=O)ccc1C21OC(=O)c2ccccc21` [Fluorescein diacetate], for which the “T1/2 (time for half of dye to leak from intact cells)” value in the data set with intact cells (37° C.) is reported as below 10 min. Further, in the data set on intact cells, the Loading entry is given as “Easily loaded” and the Retention result is on record as “poorly retained”.
As to “5-(and-6)-Carboxy-2',7'-dichloro-fluorescein diacetate”, the pH sensitivity entry in the data set with intact cells is recorded as “Lower pH-”.
As to Sulfofluorescein diacetate, in the data set on intact cells, the Loading entry is “More difficult” and the Retention entry is listed as “better”.
With Carboxynaphtho-fluorescein diacetate, in the data set on intact cells, the pH sensitivity entry is “sensitive”.
For the compound `C[n+]1c(C=C2C=CN(CCC[N+](C)(C)CCC[N+](C)(C)CCCN3C=CC(=Cc4sc5ccccc5[n+]4C)c4ccccc43)c3ccccc32)sc2ccccc21` [TOTO-1], in the data set with calf thymus DNA, the EM max is 533 nm and the EX max is 514 nm.
As for `CC(=O)OCOC(=O)c1ccc2c(c1)C(=O)OC21c2ccc(OC(C)=O)cc2Oc2cc(OC(C)=O)ccc21` [5-Carboxyfluorescein diacetate AM], the “T1/2 (time for half of dye to leak from intact cells)” value with intact cells (37° C.) is below 30 min. Also, in the data set with intact cells, the Loading entry is on record as “readily loaded” and the Retention entry is recorded as “Moderate”.
For the compound `CC(=O)OCOC(=O)CN(CC(=O)OCOC(C)=O)Cc1c(O)ccc2c(C)cc(=O)oc12` [Calcein Blue AM], in the data set on intact cells (setting [1]), the “T1/2 (time for half of dye to leak from intact cells)” value is below 15 min. Moreover, in the data set with intact cells, the Loading result is recorded as “Easily loaded”.
As for `C[n+]1c(C=C2C=CN(CCC[N+](C)(C)CCC[N+](C)(C)CCCN3C=CC(=Cc4oc5ccccc5[n+]4C)C=C3)C=C2)oc2ccccc21` [POPO-1], in the data set with calf thymus DNA, the EM max is 456 nm and the EX max was 434 nm.
As for `C[n+]1c(C=CC=C2C=CN(CCC[N+](C)(C)CCC[N+](C)(C)CCCN3C=CC(=CC=Cc4oc5ccccc5[n+]4C)c4ccccc43)c3ccccc32)oc2ccccc21` [YOYO-3], in the data set on calf thymus DNA, the EM max is on record as 631 nm and the EX max is listed as 612 nm.
With `C[n+]1c(C=CC=C2C=CN(CCC[N+](C)(C)C)c3ccccc32)oc2ccccc21` [YO-PRO-3], in the data set on calf thymus DNA, the EM max is reported as 631 nm and the EX max was 612 nm.
In the case of `C[n+]1c(C=C2C=CN(CCC[N+](C)(C)CCC[N+](C)(C)CCCN3C=CC(=Cc4sc5ccccc5[n+]4C)C=C3)C=C2)sc2ccccc21` [BOBO-1], in the data set with calf thymus DNA, the EM max is given as 481 nm and the EX max is given as 462 nm.
Turning to `C[n+]1c(C=C2C=CN(CCC[N+](C)(C)C)c3ccccc32)sc2ccccc21` [TO-PRO-1], in the data set on calf thymus DNA, the EM max is reported as 531 nm and the EX max is 515 nm.
For `O=C(O)c1ccccc1C1c2cc(Cl)c(O)cc2Oc2cc(O)c(Cl)cc21` [H2 DCF], in the data set on intact cells, the Retention result is “poor retention” and the pH sensitivity result was “pH-insensitive”.
`C[n+]1c(C=C2C=CN(CCC[N+](C)(C)CCC[N+](C)(C)CCCN3C=CC(=Cc4oc5ccccc5[n+]4C)c4ccccc43)c3ccccc32)oc2ccccc21` [YOYO-1]: in the data set with calf thymus DNA, the EM max is listed as 509 nm and the EX max is 491 nm.
As for Carboxyfluorescein diacetate, the “T1/2 (time for half of dye to leak from intact cells)” value in the data set with intact cells (37° C.) is reported as below 30 min. Further, in the data set with intact cells, the Retention entry is listed as “Moderate” and the pH sensitivity entry is “sensitive”.
Turning to `C[n+]1c(C=C2C=CN(CCC[N+](C)(C)C)C=C2)sc2ccccc21` [BO-PRO-1], in the data set on calf thymus DNA, the EM max is listed as 481 nm and the EX max was 462 nm.
With `C[n+]1c(C=CC=C2C=CN(CCC[N+](C)(C)CCC[N+](C)(C)CCCN3C=CC(=CC=Cc4oc5ccccc5[n+]4C)C=C3)C=C2)oc2ccccc21` [POPO-3], in the data set with calf thymus DNA, the EM max is 570 nm and the EX max is 534 nm.
